Test results from patent publication US8476197B2, “Aminopropenoates as fungicides” (priority 2009, dated 2013).
Marks after values point to notes of the source that are not given here.

conditions: pH 2.3

Row | Structure (SMILES) | Log P
1 | COC(=O)C(C#N)=C(NCC1CCCS1)c1cccnc1Cl (centres unmarked) [Compound 20] | 2.63
2 | COC(=O)C(C#N)=C(NC1CCSC1)c1cccnc1Cl (centres unmarked) [Compound 22] | 2.4
3 | CCOC(=O)C(C#N)=C(NC(C)c1nccs1)c1cccnc1F (centres unmarked) [Compound 79] | 2.47

same assay, conditions: pH 2.7

Row | Log P | Structure (SMILES)
4 | 1.91^[a] | CCOC(=O)C(C#N)=C(NCc1ccccn1)c1c(C)nn(C)c1F [Compound 39]
5 | 2.98^[a] | CCOC(=O)C(C#N)=C(NCc1ccccn1)c1ncc(C(F)(F)F)cc1Cl [Compound 42]
6 | 1.72^[a] | COC(=O)C(C#N)=C(NCc1nccs1)c1cn(C)nc1C(F)F [Compound 67]
7 | 2^[a] | CCOC(=O)C(C#N)=C(NCc1nccs1)c1cn(C)nc1C(F)F [Compound 68]
8 | 5.11^[a] | CCOC(=O)C(C#N)=C(NC(c1cc2ccccc2s1)C(F)(F)F)c1nsc(Cl)c1Cl (centres unmarked) [Compound 69]
9 | 2.84^[a] | CCOC(=O)C(C#N)=C(NCc1ccccn1)c1nsc(Cl)c1Cl [Compound 70]
10 | 3.35^[a] | CCOC(=O)C(C#N)=C(NC(C)c1ccccn1)c1nsc(Cl)c1Cl (centres unmarked) [Compound 71]
11 | 4.94^[a] | CCOC(=O)C(C#N)=C(NC(c1cc2ccccc2s1)C(F)(F)F)c1ncc(C(F)(F)F)cc1Cl (centres unmarked) [Compound 73]
12 | 2.84^[a] | CCOC(=O)C(C#N)=C(NCc1nccs1)c1ncc(C(F)(F)F)cc1Cl [Compound 75]
13 | 2.04^[a] | CCOC(=O)C(C#N)=C(NCc1nccs1)c1conc1C [Compound 76]
14 | 2.4^[a] | CCOC(=O)C(C#N)=C(NC(C)c1nccs1)c1conc1C (centres unmarked) [Compound 77]
15 | 3.15^[a] | CCOC(=O)C(C#N)=C(NC(C)Cc1c[nH]c2ccccc12)c1conc1C (centres unmarked) [Compound 78]
16 | 2.01^[a] | CCOC(=O)C(C#N)=C(NCc1nccs1)c1c(C)nn(C)c1F [Compound 80]
17 | 1.96^[a] | CCOC(=O)C(C#N)=C(NCc1ccccn1)c1conc1C [Compound 81]
18 | 2.63^[a] | COC(=O)C(C#N)=C(NCc1nccs1)c1ncc(C(F)(F)F)cc1Cl [Compound 83]
19 | 2.13^[a] | CCOC(=O)C(C#N)=C(NCc1nccs1)c1c(C)nn(C)c1Cl [Compound 86]
20 | 2.02^[a] | CCOC(=O)C(C#N)=C(NCc1ccccn1)c1c(C)nn(C)c1Cl [Compound 87]
21 | 2.67^[a] | CCOC(=O)C(C#N)=C(NCc1nccs1)c1sccc1Br [Compound 88]
22 | 3.8^[a] | CCOC(=O)C(C#N)=C(NC(C)Cc1c[nH]c2ccccc12)c1sccc1Br (centres unmarked) [Compound 91]
23 | 3.8^[a] | CCOC(=O)C(C#N)=C(NC(C)c1nc(C)c(C)s1)c1sccc1Br (centres unmarked) [Compound 92]

Row | Log P | Structure (SMILES)
24 | 4.24^[a] | CCOC(=O)C(C#N)=C(NC(c1cc2ccccc2s1)C(F)(F)F)c1conc1C (centres unmarked) [Compound 93]
25 | 3.12^[a] | CCOC(=O)C(C#N)=C(NC(C)c1nc(C)c(C)s1)c1c(C)nn(C)c1Cl (centres unmarked) [Compound 94]
26 | 2.82^[a] | CCOC(=O)C(C#N)=C(NCc1nccs1)c1sccc1C(F)(F)F [Compound 95]
27 | 3.31^[a] | CCOC(=O)C(C#N)=C(NC(C)c1nccs1)c1sccc1C(F)(F)F (centres unmarked) [Compound 96]
28 | 3.92^[a] | CCOC(=O)C(C#N)=C(NC(C)c1nc(C)c(C)s1)c1sccc1C(F)(F)F (centres unmarked) [Compound 97]
29 | 2.52^[a] | CCOC(=O)C(C#N)=C(NC(C)c1nccs1)c1c(C)nn(C)c1Cl (centres unmarked) [Compound 98]
30 | 2.61^[a] | CCOC(=O)C(C#N)=C(NCc1ccccn1)c1sccc1Br [Compound 99]
31 | 3.1^[a] | CCOC(=O)C(C#N)=C(NC(C)c1ccccn1)c1sccc1Br (centres unmarked) [Compound 100]
32 | 2.84^[a] | CCOC(=O)C(C#N)=C(NCc1ccccn1)c1sccc1C(F)(F)F [Compound 102]
33 | 3.27^[a] | CCOC(=O)C(C#N)=C(NC(C)c1ccccn1)c1sccc1C(F)(F)F (centres unmarked) [Compound 103]
34 | 2.66^[a] | CCOC(=O)C(C#N)=C(NCc1nccs1)c1ccsc1Br [Compound 104]
35 | 3.1^[a] | CCOC(=O)C(C#N)=C(NC(C)c1nccs1)c1ccsc1Br (centres unmarked) [Compound 105]
36 | 3.8^[a] | CCOC(=O)C(C#N)=C(NC(C)Cc1c[nH]c2ccccc12)c1ccsc1Br (centres unmarked) [Compound 106]
37 | 4.89^[a] | CCOC(=O)C(C#N)=C(NC(c1cc2ccccc2s1)C(F)(F)F)c1sccc1C(F)(F)F (centres unmarked) [Compound 107]
38 | 3.94^[a] | CCOC(=O)C(C#N)=C(NC(C)Cc1c[nH]c2ccccc12)c1sccc1C(F)(F)F (centres unmarked) [Compound 108]
39 | 0.82^[a] | COC(=O)C(C#N)=C(NC(C)c1cccnc1)c1cccnc1Cl (centres unmarked) [Compound 109]
40 | 1.99^[a] | COC(=O)C(C#N)=C(NC(C)c1ccccn1)c1cccnc1Cl (centres unmarked) [Compound 110]
41 | 3.7^[a] | CCOC(=O)C(C#N)=C(NC(C)c1nc(C)c(C)s1)c1ccsc1Br (centres unmarked) [Compound 112]
42 | 3.24^[a] | CCOC(=O)C(C#N)=C(NC(C)Cc1cc2ccccc2[nH]1)c1c(C)nn(C)c1Cl (centres unmarked) [Compound 113]
43 | 2.53^[a] | CCOC(=O)C(C#N)=C(NCc1ccccn1)c1ccsc1Br [Compound 115]

Row | Structure (SMILES) | Log P
44 | CCOC(=O)C(C#N)=C(NCc1ccccn1)c1cn(C)nc1C(F)F [Compound 32] | 1.94^[a]
45 | COC(=O)C(C#N)=C(NCc1ccccn1)c1cn(C)nc1C(F)F [Compound 58] | 1.63^[a]
46 | CCOC(=O)C(C#N)=C(NC(C)c1nc(C)c(C)s1)c1cn(C)nc1C(F)(F)F (centres unmarked) [Compound 64] | 3.48^[a]
47 | CCOC(=O)C(C#N)=C(NC(C)Cc1c[nH]c2ccccc12)c1cn(C)nc1C(F)(F)F (centres unmarked) [Compound 65] | 3.73^[a]
48 | CCOC(=O)C(C#N)=C(NCc1nccs1)c1cccnc1Cl [Compound 66] | 2.07^[a]
49 | CCOC(=O)C(C#N)=C(NC(C)c1nc(C)c(C)s1)c1conc1C (centres unmarked) [Compound 74] | 3.02^[a]
50 | CCOC(=O)C(C#N)=C(NC(C)c1ccccn1)c1conc1C (centres unmarked) [Compound 82] | 2.36^[a]
51 | CCOC(=O)C(C#N)=C(NC(C)c1nccs1)c1sccc1Br (centres unmarked) [Compound 85] | 3.13^[a]

same assay, conditions: pH 7.5

Row | Log P | Structure (SMILES)
52 | 2.47 | COC(=O)C(C#N)=C(NCC1CCCS1)c1cccnc1Cl (centres unmarked) [Compound 20]
53 | 3.07 | CC(NC(=C(C#N)C(=O)OC(C)(C)C)c1cccnc1Cl)c1nccs1 (centres unmarked) [Compound 25]
54 | 2.17 | COC(=O)C(C#N)=C(NC(C)c1sc(C)nc1C)c1cccnc1Cl (centres unmarked) [Compound 26]
55 | 3.13 | CC(C)COC(=O)C(C#N)=C(NC(C)c1nccs1)c1cccnc1Cl (centres unmarked) [Compound 28]
56 | 3.63 | CC(C)OC(=O)C(C#N)=C(NC(C)c1nc2ccccc2s1)c1cccnc1Cl (centres unmarked) [Compound 29]
57 | 2.67 | CC(NC(=C(C#N)C(=O)OCC(F)(F)F)c1cccnc1Cl)c1nccs1 (centres unmarked) [Compound 30]
58 | 1.59 | CCOC(=O)C(C#N)=C(NC(C)Cn1cncn1)c1cccnc1Cl (centres unmarked) [Compound 84]
59 | 2.56 | C=CCOC(=O)C(C#N)=C(NC(C)c1nccs1)c1cccnc1Cl (centres unmarked) [Compound 89]

Row | Structure (SMILES) | Log P
60 | COC(=O)C(C#N)=C(NC(C)c1nccs1)c1cccnc1Br (centres unmarked) [Compound 21] | 2.12
61 | COC(=O)C(C#N)=C(NC1CCSC1)c1cccnc1Cl (centres unmarked) [Compound 22] | 2.23
62 | CC(C)OC(=O)C(C#N)=C(NC(C)c1nccs1)c1cccnc1Cl (centres unmarked) [Compound 23] | 2.7
63 | CCOC(=O)C(C#N)=C(NC(C)c1nccs1)c1ccc(C)nc1Cl (centres unmarked) [Compound 24] | 2.62
64 | CCOC(=O)C(C#N)=C(NC(C)c1nccs1)c1ccc(Cl)nc1Cl (centres unmarked) [Compound 72] | 3.01
65 | CCOC(=O)C(C#N)=C(NC(C)c1nccs1)c1cccnc1F (centres unmarked) [Compound 79] | 2.32
